Columns and labels:
[1] = system: LOX cells; assay: Apoptosis by Annexin V FITC flow cytometry, LOX; assay type: cell-based, human; details: 10 μM for 3 days
Description: (§1) Compound 1 and other compounds of Tables 1A and 1B were similarly tested for apoptotic effects to represent the inhibitory effects of compounds on interaction between the PDZ domain of the Dishevelled (Dvl) protein and the Fz protein (Wnt receptor). Cell lines H460 and LOX were utilized, with the test compound being applied at 10 μM for 3 days. Cultured cells treated with the test compounds in the culture media were harvested by trypsinization and stained using an Annexin V FITC Apoptosis Detection kit (Oncogene Science, Cambridge, Mass.), according to the manufacturer's protocol. Stained cells were immediately analyzed by flow cytometry (FACScan; Becton-Dickinson, Franklin Lake, N.J.).

[2] = system: H460 cells; assay: Apoptosis by Annexin V FITC flow cytometry, H460; assay type: cell-based, human; details: 10 μM for 3 days
Description: as §1

[3] = Assay 1, library 1, control 10.85
[4] = Assay 1, library 1, control 9.22
[5] = Assay 2, library 2, control 9.67
[6] = Assay 2, library 2, control 10.24
[7] = Assay 3, library 3, control 8.81
[8] = Assay 3, library 3, control 7.59

Which results are given for `Cc1cc2[nH]c(C(O)CC(C)C)c(CCc3ccccc3)c2cc1C(=O)O` (centres unmarked) [Compound 2]?
apoptosis, % LOX [1, 3]: 36.32%; apoptosis, % H460 [2, 4]: 34.21%

How did the “apoptosis, % LOX” value [1, 3] turn out when `CCC(C)C(O)c1[nH]c2cc(C)c(C(=O)O)cc2c1CCc1ccccc1` (centres unmarked) [Compound 3] was run?
Its value is 56.29%.

What about the “apoptosis, % H460” value [2, 4] of the same compound?
Its value is 79.9%.

How did the “apoptosis, % LOX” value [1, 3] turn out when `Cc1cc2[nH]c(C(O)CC3CCCC3)c(CCc3ccccc3)c2cc1C(=O)O` (centres unmarked) [Compound 4] was run?
Its value is 32.52%.

And the “apoptosis, % H460” value [2, 4]?
Its value is 36.41%.

With `Cc1cc2[nH]c(C(O)C3CCCCC3)c(CCc3ccccc3)c2cc1C(=O)O` (centres unmarked) [Compound 5] as the compound, how does the “apoptosis, % LOX” value [1, 3] read?
Its value is 27.15%.

And the “apoptosis, % H460” value [2, 4]?
The value was 24.39%.

Which “apoptosis, % LOX” value [1, 3] does the source give for `Cc1cc2[nH]c(C(O)CCCC(=O)O)c(CCc3ccccc3)c2cc1C(=O)O` (centres unmarked) [Compound 6] here?
The value was 9.22%.

And the “apoptosis, % H460” value [2, 4]?
Its value is 8.62%.

For `CCCCC(=O)c1[nH]c2cc(C)c(C(=O)OC)cc2c1CCc1ccccc1` [Compound 7], which “apoptosis, % LOX” value [1, 3] is on record?
The value was 17.96%.

What about the “apoptosis, % H460” value [2, 4] of the same compound?
The value was 13.92%.

`CCCCCc1c(C(O)CCCC)[nH]c2cc(C)c(C(=O)O)cc12` (centres unmarked) [Compound 10] was tested. Which “apoptosis, % LOX” value [1, 5] did it give?
Its value is 19.08%.

What about the “apoptosis, % H460” value [2, 6] of the same compound?
Its value is 39.64%.

How did the “apoptosis, % LOX” value [1, 5] turn out when `CCCCC(O)c1[nH]c2cc(C)c(C(=O)O)cc2c1CC(C)C` (centres unmarked) [Compound 11] was run?
Its value is 14.83%.

What about the “apoptosis, % H460” value [2, 6] of the same compound?
Its value is 24.48%.

What does the source list for `CCCCC(O)c1[nH]c2cc(C)c(C(=O)O)cc2c1C1CCCCC1` (centres unmarked) [Compound 12]?
apoptosis, % LOX [1, 5]: 15.83%; apoptosis, % H460 [2, 6]: 28.8%

Which results are given for `CCCCC(O)c1[nH]c2cc(C)c(C(=O)O)cc2c1-c1ccccc1` (centres unmarked) [Compound 13]?
apoptosis, % LOX [1, 5]: 17.84%; apoptosis, % H460 [2, 6]: 35.51%

What does the source list for `CCCCC(O)c1[nH]c2cc(C)c(C(=O)O)cc2c1Cc1ccccc1` (centres unmarked) [Compound 14]?
apoptosis, % LOX [1, 5]: 11.88%; apoptosis, % H460 [2, 6]: 24.26%

Which results are given for `CCCCC(O)c1[nH]c2cc(C)c(C(=O)O)cc2c1CCCc1ccccc1` (centres unmarked) [Compound 15]?
apoptosis, % LOX [1, 5]: 17.57%; apoptosis, % H460 [2, 6]: 37.4%

For `CCCCC(O)c1[nH]c2cc(C)c(C(=O)O)cc2c1CCCO` (centres unmarked) [Compound 16], which “apoptosis, % LOX” value [1, 5] is on record?
The value was 14.5%.

What about the “apoptosis, % H460” value [2, 6] of the same compound?
The value was 15.7%.

Which results are given for `CCCCC(O)c1[nH]c2cc(C)c(C(=O)O)cc2c1CCCC(=O)O` (centres unmarked) [Compound 17]?
apoptosis, % LOX [1, 5]: 15.62%; apoptosis, % H460 [2, 6]: 18.93%

How did the “apoptosis, % LOX” value [1, 7] turn out when `Cc1cc2[nH]c(C(O)CC(C)C)c(-c3ccccc3)c2cc1C(=O)O` (centres unmarked) [Compound 18] was run?
Its value is 9.53%.

And the “apoptosis, % H460” value [2, 8]?
Its value is 21.11%.

Which results are given for `CCC(C)C(O)c1[nH]c2cc(C)c(C(=O)O)cc2c1-c1ccccc1` (centres unmarked) [Compound 19]?
apoptosis, % LOX [1, 7]: 47.62%; apoptosis, % H460 [2, 8]: 44.15%

For `Cc1cc2[nH]c(C(O)C(C)C)c(-c3ccccc3)c2cc1C(=O)O` (centres unmarked) [Compound 20], which “apoptosis, % LOX” value [1, 7] is on record?
Its value is 11.77%.

What about the “apoptosis, % H460” value [2, 8] of the same compound?
The value was 28.9%.

What does the source list for `Cc1cc2[nH]c(C(O)CC3CCCC3)c(-c3ccccc3)c2cc1C(=O)O` (centres unmarked) [Compound 21]?
apoptosis, % LOX [1, 7]: 19.99%; apoptosis, % H460 [2, 8]: 31.22%

With `Cc1cc2[nH]c(C(O)C3CCCCC3)c(-c3ccccc3)c2cc1C(=O)O` (centres unmarked) [Compound 22] as the compound, how does the “apoptosis, % LOX” value [1, 7] read?
Its value is 15.47%.

What about the “apoptosis, % H460” value [2, 8] of the same compound?
The value was 16.22%.

With `Cc1cc2[nH]c(C(O)CC(C)(C)C)c(-c3ccccc3)c2cc1C(=O)O` (centres unmarked) [Compound 23] as the compound, how does the “apoptosis, % LOX” value [1, 7] read?
Its value is 11.34%.

And the “apoptosis, % H460” value [2, 8]?
Its value is 12.09%.

With `Cc1cc2[nH]c(C(O)CCc3ccccc3)c(-c3ccccc3)c2cc1C(=O)O` (centres unmarked) [Compound 24] as the compound, how does the “apoptosis, % LOX” value [1, 7] read?
The value was 26.56%.

What about the “apoptosis, % H460” value [2, 8] of the same compound?
The value was 26.58%.

How did the “apoptosis, % LOX” value [1, 3] turn out when `CCCCC(=O)c1[nH]c2cc(C)c(C(=O)O)cc2c1CCc1ccccc1` [Compound 26] was run?
The value was 16.86%.

And the “apoptosis, % H460” value [2, 4]?
Its value is 16.13%.

With `Cc1cc2[nH]c(C(=O)CC(C)C)c(CCc3ccccc3)c2cc1C(=O)O` [Compound 27] as the compound, how does the “apoptosis, % LOX” value [1, 3] read?
The value was 18.5%.

And the “apoptosis, % H460” value [2, 4]?
The value was 16.91%.

What does the source list for `CCC(C)C(=O)c1[nH]c2cc(C)c(C(=O)O)cc2c1CCc1ccccc1` (centres unmarked) [Compound 28]?
apoptosis, % LOX [1, 3]: 38.53%; apoptosis, % H460 [2, 4]: 58.76%

What does the source list for `Cc1cc2[nH]c(C(=O)CC3CCCC3)c(CCc3ccccc3)c2cc1C(=O)O` [Compound 29]?
apoptosis, % LOX [1, 3]: 74.11%; apoptosis, % H460 [2, 4]: 64.1%

How did the “apoptosis, % LOX” value [1, 3] turn out when `Cc1cc2[nH]c(C(=O)C3CCCCC3)c(CCc3ccccc3)c2cc1C(=O)O` [Compound 30] was run?
Its value is 55.76%.

And the “apoptosis, % H460” value [2, 4]?
The value was 78.07%.

For `Cc1cc2[nH]c(C(=O)CCCC(=O)O)c(CCc3ccccc3)c2cc1C(=O)O` [Compound 31], which “apoptosis, % LOX” value [1, 3] is on record?
Its value is 12.06%.

And the “apoptosis, % H460” value [2, 4]?
Its value is 9.07%.

With `Cc1cc2[nH]c(C(=O)c3ccccc3)c(CCc3ccccc3)c2cc1C(=O)O` [Compound 32] as the compound, how does the “apoptosis, % LOX” value [1, 3] read?
The value was 15.36%.

And the “apoptosis, % H460” value [2, 4]?
The value was 21.13%.

`Cc1cc2[nH]c(C(=O)Cc3ccccc3)c(CCc3ccccc3)c2cc1C(=O)O` [Compound 33] was tested. Which “apoptosis, % LOX” value [1, 3] did it give?
Its value is 15.03%.

What about the “apoptosis, % H460” value [2, 4] of the same compound?
Its value is 12.66%.

Which “apoptosis, % LOX” value [1, 3] does the source give for `Cc1cc2[nH]c(C(=O)CCc3ccccc3)c(CCc3ccccc3)c2cc1C(=O)O` [Compound 34] here?
Its value is 44.73%.

What about the “apoptosis, % H460” value [2, 4] of the same compound?
The value was 76.59%.

Which results are given for `CCCCCc1c(C(=O)CCCC)[nH]c2cc(C)c(C(=O)O)cc12` [Compound 35]?
apoptosis, % LOX [1, 5]: 23.23%; apoptosis, % H460 [2, 6]: 34.73%

What does the source list for `CCCCC(=O)c1[nH]c2cc(C)c(C(=O)O)cc2c1CC(C)C` [Compound 36]?
apoptosis, % LOX [1, 5]: 13.51%; apoptosis, % H460 [2, 6]: 41.48%

Which results are given for `CCCCC(=O)c1[nH]c2cc(C)c(C(=O)O)cc2c1C1CCCCC1` [Compound 37]?
apoptosis, % LOX [1, 5]: 7.49%; apoptosis, % H460 [2, 6]: 45.05%

For `CCCCC(=O)c1[nH]c2cc(C)c(C(=O)O)cc2c1-c1ccccc1` [Compound 38], which “apoptosis, % LOX” value [1, 5] is on record?
Its value is 13.58%.

What about the “apoptosis, % H460” value [2, 6] of the same compound?
Its value is 51.61%.

How did the “apoptosis, % LOX” value [1, 5] turn out when `CCCCC(=O)c1[nH]c2cc(C)c(C(=O)O)cc2c1Cc1ccccc1` [Compound 39] was run?
The value was 29.35%.

What about the “apoptosis, % H460” value [2, 6] of the same compound?
Its value is 42.9%.

For `CCCCC(=O)c1[nH]c2cc(C)c(C(=O)O)cc2c1CCCc1ccccc1` [Compound 40], which “apoptosis, % LOX” value [1, 5] is on record?
The value was 16.5%.

And the “apoptosis, % H460” value [2, 6]?
Its value is 23.93%.

`CCCCC(=O)c1[nH]c2cc(C)c(C(=O)O)cc2c1CCCO` [Compound 41] was tested. Which “apoptosis, % LOX” value [1, 5] did it give?
The value was 12.69%.

What about the “apoptosis, % H460” value [2, 6] of the same compound?
Its value is 19.96%.

What does the source list for `CCCCC(=O)c1[nH]c2cc(C)c(C(=O)O)cc2c1CCCC(=O)O` [Compound 42]?
apoptosis, % LOX [1, 5]: 15.22%; apoptosis, % H460 [2, 6]: 49.41%

With `Cc1cc2[nH]c(C(=O)CC(C)C)c(-c3ccccc3)c2cc1C(=O)O` [Compound 43] as the compound, how does the “apoptosis, % LOX” value [1, 7] read?
The value was 20.24%.

And the “apoptosis, % H460” value [2, 8]?
Its value is 34.22%.

Which “apoptosis, % LOX” value [1, 7] does the source give for `CCC(C)C(=O)c1[nH]c2cc(C)c(C(=O)O)cc2c1-c1ccccc1` (centres unmarked) [Compound 44] here?
The value was 54.13%.

What about the “apoptosis, % H460” value [2, 8] of the same compound?
Its value is 37.38%.

With `Cc1cc2[nH]c(C(=O)C(C)C)c(-c3ccccc3)c2cc1C(=O)O` [Compound 45] as the compound, how does the “apoptosis, % LOX” value [1, 7] read?
The value was 86.71%.

What about the “apoptosis, % H460” value [2, 8] of the same compound?
The value was 96.96%.

`Cc1cc2[nH]c(C(=O)CC3CCCC3)c(-c3ccccc3)c2cc1C(=O)O` [Compound 46] was tested. Which “apoptosis, % LOX” value [1, 7] did it give?
The value was 38.6%.

What about the “apoptosis, % H460” value [2, 8] of the same compound?
Its value is 39.06%.

Which results are given for `Cc1cc2[nH]c(C(=O)C3CCCCC3)c(-c3ccccc3)c2cc1C(=O)O` [Compound 47]?
apoptosis, % LOX [1, 7]: 73.02%; apoptosis, % H460 [2, 8]: 49.77%

How did the “apoptosis, % LOX” value [1, 7] turn out when `Cc1cc2[nH]c(C(=O)CC(C)(C)C)c(-c3ccccc3)c2cc1C(=O)O` [Compound 48] was run?
The value was 15.14%.

And the “apoptosis, % H460” value [2, 8]?
The value was 24.48%.

How did the “apoptosis, % LOX” value [1, 7] turn out when `Cc1cc2[nH]c(C(=O)CCc3ccccc3)c(-c3ccccc3)c2cc1C(=O)O` [Compound 49] was run?
The value was 96.34%.

And the “apoptosis, % H460” value [2, 8]?
Its value is 82.53%.

For `Cc1cc2[nH]c(C(=O)CCCc3ccccc3)c(-c3ccccc3)c2cc1C(=O)O` [Compound 50], which “apoptosis, % LOX” value [1, 7] is on record?
Its value is 72.47%.

And the “apoptosis, % H460” value [2, 8]?
Its value is 41.75%.

— patent US7795295B2, “Small molecule inhibition of PDZ-domain interaction” (The Regents of the University of California, priority 2004, dated 2010)
